Measured values: patent publication US20150299188A1, “HETEROCYCLIC COMPOUND” (priority 2012, published 2015)

These compounds were tested on FLAP (5-lipoxygenase activating protein) (assay: In vitro binding test: displacement of [3H]-7-chloro-3-(5-((3-fluoropyridin-2-yl)methoxy)-2-methylphenyl)-3,4-dihydroquinazolin-2(1H)-one from Sf9 microsome fractions). Conditions: Sf9 microsome fractions expressing FLAP; 100% = radioligand binding with 10 μM sodium 3-(3-(tert-butylsulfanyl)-1-(4-chlorobenzyl)-5-isopropyl-1H-indol-2-yl)-2,2-dimethylpropanoate, 0% = DMSO; test compound concentration not given.
Set-up: species or system human and mouse
Outline: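 Sf9 microsomes expressing human or mouse FLAP (2 μg/mL) preincubated with compound 10 min at room temperature, then 120 nM tritiated quinazolinone ligand added for 60 min; buffer 100 mM Tris-HCl pH 7.5 with NaCl, EDTA, DTT, glycerol, Tween20. Bound ligand filtered and counted by scintillation; 10 μM indole propanoate defines 100% inhibition, DMSO 0%.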

Row | inhibitory rate (%) | Compound
1 | 101 | Cc1ccc(OCc2ncccc2F)cc1N1Cc2c(ccnc2C2CC2)NC1=O [Example 320, 5-cyclopropyl-3-(5-((3-fluoropyridin-2-yl)methoxy)-2-methylphenyl)-3,4-dihydropyrido[4,3-d]pyrimidin-2(1H)-one]
2 | 90 | Cc1ccc(OCc2ncccc2F)cc1N1Cc2c(ccnc2C#N)NC1=O [Example 321, 3-(5-((3-fluoropyridin-2-yl)methoxy)-2-methylphenyl)-2-oxo-1,2,3,4-tetrahydropyrido[4,3-d]pyrimidine-5-carbonitrile]
3 | 97 | Cc1ccc(OCc2ncccc2F)cc1N1Cc2c(ccnc2C(N)=O)NC1=O [Example 322, 3-(5-((3-fluoropyridin-2-yl)methoxy)-2-methylphenyl)-2-oxo-1,2,3,4-tetrahydropyrido[4,3-d]pyrimidine-5-carboxamide]
4 | 94 | Cc1ccc(OCc2ncccc2F)cc1N1Cc2c(ccnc2C)NC1=O [Example 323, 3-(5-((3-fluoropyridin-2-yl)methoxy)-2-methylphenyl)-5-methyl-3,4-dihydropyrido[4,3-d]pyrimidin-2(1H)-one]
5 | 50 | O=c1[nH]c2ccccc2c(=O)n1-c1cc(OCc2c(F)cccc2F)ccn1 [Example 324, 3-(4-((2,6-difluorobenzyl)oxy)pyridin-2-yl)quinazoline-2,4(1H,3H)-dione]
6 | 65 | O=c1[nH]c2cc[nH]c2c(=O)n1-c1cccc(OCc2c(F)cccc2F)c1 [Example 325, 3-(3-((2,6-difluorobenzyl)oxy)phenyl)-1H-pyrrolo[3,2-d]pyrimidine-2,4(3H,5H)-dione]
7 | 95 | O=c1[nH]c2ccccc2c(=O)n1-c1ccc2c(c1)OC(c1c(F)cccc1F)CC2 (stereo not shown) [Example 326, 3-(2-(2,6-difluorophenyl)-3,4-dihydro-2H-chromen-7-yl)quinazoline-2,4(1H,3H)-dione]
8 | 107 | Cc1cc2c(cc1-n1c(=O)[nH]c3ccccc3c1=O)OC(c1ncccc1F)CC2 (stereo not shown) [Example 327, 3-(2-(3-fluoropyridin-2-yl)-6-methyl-3,4-dihydro-2H-chromen-7-yl)quinazoline-2,4(1H,3H)-dione]
9 | 111 | COCCn1c(=O)n(-c2cc3c(cc2C)CCC(c2ncccc2F)O3)c(=O)c2ccccc21 (stereo not shown) [Example 328, 3-(2-(3-fluoropyridin-2-yl)-6-methyl-3,4-dihydro-2H-chromen-7-yl)-1-(2-methoxyethyl)quinazoline-2,4(1H,3H)-dione]
10 | 103 | Cn1c(=O)n(-c2ccc3c(c2)OC(c2c(F)cccc2F)CC3)c(=O)c2ccccc21 (stereo not shown) [Example 329, 3-(2-(2,6-difluorophenyl)-3,4-dihydro-2H-chromen-7-yl)-1-methylquinazoline-2,4(1H,3H)-dione]
11 | 72 | O=c1[nH]c2cnccc2c(=O)n1-c1cccc(OCc2c(F)cccc2F)c1 [Example 330, 3-(3-((2,6-difluorobenzyl)oxy)phenyl)pyrido[3,4-d]pyrimidine-2,4(1H,3H)-dione]
12 | 51 | Cn1c(=O)n(-c2cccc(OCc3c(F)cccc3F)c2)c(=O)c2ccncc21 [Example 331, 3-(3-((2,6-difluorobenzyl)oxy)phenyl)-1-methylpyrido[3,4-d]pyrimidine-2,4(1H,3H)-dione]
13 | 93 | Cc1ccc(OCc2c(F)cccc2F)cc1-n1c(=O)[nH]c2nc(N3CCOCC3)sc2c1=O [Example 334, 6-(5-((2,6-difluorobenzyl)oxy)-2-methylphenyl)-2-(morpholin-4-yl)[1,3]thiazolo[4,5-d]pyrimidine-5,7(4H,6H)-dione]
14 | 103 | COC(=O)c1ccc2c(=O)n(-c3cc(OCc4c(F)cccc4F)ccc3C)c(=O)[nH]c2c1 [Example 335, methyl 3-(5-((2,6-difluorobenzyl)oxy)-2-methylphenyl)-2,4-dioxo-1,2,3,4-tetrahydroquinazoline-7-carboxylate]
15 | 108 | Cc1ccc(OCc2c(F)cccc2F)cc1-n1c(=O)[nH]c2cc(C(C)(C)O)ccc2c1=O [Example 336, 3-(5-((2,6-difluorobenzyl)oxy)-2-methylphenyl)-7-(2-hydroxypropan-2-yl)quinazoline-2,4(1H,3H)-dione]
16 | 104 | Cc1ccc(OCc2ncccc2F)cc1-n1c(=O)[nH]c2ccccc2c1=O [Example 337, 3-(5-((3-fluoropyridin-2-yl)methoxy)-2-methylphenyl)quinazoline-2,4(1H,3H)-dione]
17 | 90 | Cc1ccc(OCc2ncccc2F)cc1-n1c(=O)[nH]c2cccnc2c1=O [Example 338, 3-(5-((3-fluoropyridin-2-yl)methoxy)-2-methylphenyl)pyrido[3,2-d]pyrimidine-2,4(1H,3H)-dione]

Row | inhibitory rate (%) | Compound
18 | 106 | Cc1ccc(OCc2ncccc2F)cc1-n1c(=O)[nH]c2cnccc2c1=O [Example 339, 3-(5-((3-fluoropyridin-2-yl)methoxy)-2-methylphenyl)pyrido[3,4-d]pyrimidine-2,4(1H,3H)-dione]
19 | 102 | Cc1ccc(OCc2ncccc2F)cc1-n1c(=O)[nH]c2cc([N+](=O)[O-])ccc2c1=O [Example 341, 3-(5-((3-fluoropyridin-2-yl)methoxy)-2-methylphenyl)-7-nitroquinazoline-2,4(1H,3H)-dione]
20 | 101 | Cc1ccc(OCc2ncccc2F)cc1-n1c(=O)[nH]c2cnc(Cl)cc2c1=O [Example 342, 6-chloro-3-(5-((3-fluoropyridin-2-yl)methoxy)-2-methylphenyl)pyrido[3,4-d]pyrimidine-2,4(1H,3H)-dione]
21 | 101 | Cc1ccc(OCc2ncccc2F)cc1-n1c(=O)[nH]c2ncccc2c1=O [Example 343, 3-(5-((3-fluoropyridin-2-yl)methoxy)-2-methylphenyl)pyrido[2,3-d]pyrimidine-2,4(1H,3H)-dione]
22 | 114 | O=c1[nH]c2ccccc2c(=O)n1-c1cc(OCc2ncccc2F)ccc1Cl [Example 344, 3-(2-chloro-5-((3-fluoropyridin-2-yl)methoxy)phenyl)quinazoline-2,4(1H,3H)-dione]
23 | 114 | O=c1[nH]c2ccccc2c(=O)n1-c1cc(OCc2ncccc2F)ccc1F [Example 345, 3-(2-fluoro-5-((3-fluoropyridin-2-yl)methoxy)phenyl)quinazoline-2,4(1H,3H)-dione]
24 | 96 | O=c1[nH]c2ccccc2c(=O)n1-c1cccc(OCc2ncccc2F)c1 [Example 346, 3-(3-((3-fluoropyridin-2-yl)methoxy)phenyl)quinazoline-2,4(1H,3H)-dione]
25 | 110 | Cc1ccc(OCc2ncccc2F)cc1-n1c(=O)[nH]c2c(Cl)cccc2c1=O [Example 347, 8-chloro-3-(5-((3-fluoropyridin-2-yl)methoxy)-2-methylphenyl)quinazoline-2,4(1H,3H)-dione]
26 | 101 | Cc1ccc(OCc2ncccc2F)cc1-n1c(=O)[nH]c2cc(N)ccc2c1=O [Example 348, 7-amino-3-(5-((3-fluoropyridin-2-yl)methoxy)-2-methylphenyl)quinazoline-2,4(1H,3H)-dione]
27 | 105 | Cc1ccc(OCc2ncccc2F)cc1-n1c(=O)[nH]c2cc(OCC3CC3)ccc2c1=O [Example 349, 7-(cyclopropylmethoxy)-3-(5-((3-fluoropyridin-2-yl)methoxy)-2-methylphenyl)quinazoline-2,4(1H,3H)-dione]
28 | 101 | Cc1ccc(OCc2ncccc2F)cc1-n1c(=O)[nH]c2cc(NC(=O)C3CC3)ccc2c1=O [Example 350, N-(3-(5-((3-fluoropyridin-2-yl)methoxy)-2-methylphenyl)-2,4-dioxo-1,2,3,4-tetrahydroquinazolin-7-yl)cyclopropanecarboxamide]
29 | 107 | Cc1ccc(OCc2ncccc2F)cc1-n1c(=O)[nH]c2cc(Cl)ccc2c1=O [Example 351, 7-chloro-3-(5-((3-fluoropyridin-2-yl)methoxy)-2-methylphenyl)quinazoline-2,4(1H,3H)-dione]
30 | 107 | COCCOc1ccc2c(=O)n(-c3cc(OCc4ncccc4F)ccc3C)c(=O)n(CCOC)c2c1 [Example 352, 3-(5-((3-fluoropyridin-2-yl)methoxy)-2-methylphenyl)-7-(2-methoxyethoxy)-1-(2-methoxyethyl)quinazoline-2,4(1H,3H)-dione]
31 | 106 | Cc1ccc(OCc2ncccc2F)cc1-n1c(=O)[nH]c2c(OCC3CC3)cccc2c1=O [Example 353, 8-(cyclopropylmethoxy)-3-(5-((3-fluoropyridin-2-yl)methoxy)-2-methylphenyl)quinazoline-2,4(1H,3H)-dione]
32 | 104 | COCCOc1cccc2c(=O)n(-c3cc(OCc4ncccc4F)ccc3C)c(=O)[nH]c12 [Example 354, 3-(5-((3-fluoropyridin-2-yl)methoxy)-2-methylphenyl)-8-(2-methoxyethoxy)quinazoline-2,4(1H,3H)-dione]
33 | 94 | Cc1ccc(OCc2ncccc2F)cc1-n1c(=O)[nH]c2ccc(Cl)cc2c1=O [Example 355, 6-chloro-3-(5-((3-fluoropyridin-2-yl)methoxy)-2-methylphenyl)quinazoline-2,4(1H,3H)-dione]
34 | 102 | COCCOc1ccc2c(=O)n(-c3cc(OCc4ncccc4F)ccc3C)c(=O)[nH]c2c1 [Example 356, 3-(5-((3-fluoropyridin-2-yl)methoxy)-2-methylphenyl)-7-(2-methoxyethoxy)quinazoline-2,4(1H,3H)-dione]
